From PMC10011554, “BET inhibitor trotabresib in heavily pretreated patients with solid tumors and diffuse large B-cell lymphomas” (Nature Communications, 2023)
Values joined by “and” are separate entries in the source; they are usually repeats but may differ in a detail not shown here. Equal values may be shown once. Read-outs that look alike come from different tables or passages of the source.

Assays:
[1] = system: FARAGE (GCB DLBCL); parameters: method as in Report CC-90010-Pharm-1018; conditions: read-out: absolute IC50, proliferation, cited from earlier work
[2] = ref Investigator's Brochure, cited from earlier work
[3] = system: COH69 TNBC PDX-derived model; parameters: method as in Investigator's Brochure; conditions: COH69, ref Investigator's Brochure; read-out: IC50, colony formation; cited from earlier work
[4] = system: three TNBC models; parameters: method as in Investigator's Brochure; conditions: ref Investigator's Brochure, read-out: overall mean IC50, colony formation; cited from earlier work
[5] = system: R/R DLBCL; test: Tumor response (International Working Group criteria), PFS and OS in phase I study, part B; type: in vivo, human
Experimental: Secondary objectives were the preliminary efficacy of trotabresib in terms of clinical benefit rate (CR + PR + SD of ≥4 months’ duration), ORR (CR + PR), duration of response or SD, PFS, OS, and the PK of trotabresib. In addition, part C assessed the effects of food on the PK and the safety of trotabresib as a secondary objective. The pharmacodynamics of trotabresib were assessed as an exploratory objective.
Response was assessed using Response Evaluation Criteria in Solid Tumors (RECIST) v1.1[54] in patients with solid tumors, International Working Group criteria in patients with DLBCL[55], and Response Assessment in Neuro-Oncology (RANO) criteria[56] in patients with CNS tumors (astrocytoma and glioblastoma). For patients with BCC, the response was assessed using a combination of radiological assessment of target lesions per RECIST v1.1, digital clinical photography assessed per World Health Organization (WHO) criteria, and punch biopsies to confirm CR. PK parameters assessed included Cmax, tmax, AUC, t½, apparent clearance (CL/F), and apparent volume of distribution (Vz/F).
Bayesian logistic regression model based on dose-limiting toxicity was used to provide initial guidance for dose recommendations in the dose-escalation phase. The final decision was reached by considering the totality of safety, PK, and PD data. For binary efficacy endpoints, two-sided 95% Clopper–Pearson exact confidence intervals were provided. For time-to-event endpoints (PFS and OS), the median and 95% CI were estimated using the Kaplan–Meier method.

[6] = system: WSU-DLCL2 (DOX-R); parameters: method as in Report CC-90010-Pharm-1018; conditions: Table 2, ref Report CC-90010-Pharm-1018, read-out: absolute IC50, proliferation; cited from earlier work
[7] = system: GLI1 gene expression in MIA-PaCa-2 pancreatic adenocarcinoma cells; parameters: method as in Investigator's Brochure; conditions: MIA-PaCa-2 cells, ref Investigator's Brochure; read-out: IC50, inhibition of GLI1 gene expression; cited from earlier work
[8] = system: CCR1 mRNA; test: Blood CCR1 mRNA levels (QuantiGene, normalized to PPIB); type: in vivo, human; conditions: for decrease of blood PD marker CCR1 achieved: part A
Experimental: Changes in peripheral CCR1 mRNA levels, expression of which is modulated following BET inhibition, were assessed using QuantiGene technology (Thermo Fisher Scientific) and normalized to the expression of a control gene, peptidylprolyl isomerase B (PPIB). The data were presented as a percentage of pre-dose mRNA levels.

[9] = system: U-2932 (DOX-R); parameters: method as in Report CC-90010-Pharm-1018; conditions: Table 2, ref Report CC-90010-Pharm-1018, read-out: absolute IC50, proliferation; cited from earlier work
[10] = parameters: method as in PMID 32240793; conditions: cited from earlier work
[11] = system: OATP1B3; parameters: method as in Investigator's Brochure; conditions: OATP1B3, 30 µM, ref Investigator's Brochure; cited from earlier work
[12] = system: human ether-à-go-go-related gene (hERG); parameters: method as in Investigator's Brochure; conditions: ref Investigator's Brochure; cited from earlier work
[13] = system: SU-DHL-4 (GCB DLBCL); parameters: method as in Report CC-90010-Pharm-1018; conditions: read-out: absolute IC50, proliferation, cited from earlier work
[14] = system: RC-K8 (ABC DLBCL); parameters: method as in Report CC-90010-Pharm-1018; conditions: RC-K8, Experiment 1, ref Report CC-90010-Pharm-1018; read-out: absolute IC50, proliferation; cited from earlier work
[15] = system: CYP2C19; parameters: method as in Investigator's Brochure; conditions: CYP2C19, ref Investigator's Brochure; read-out: IC50, direct inhibition; cited from earlier work
[16] = parameters: method as in PMID 32240793; conditions: part A preliminary results; cited from earlier work
[17] = part B R/R DLBCL (N = 23), treated population

Cn1cc(-c2cc(S(C)(=O)=O)ccc2OCC2CC2)c2ccccc2c1=O [trotabresib]
IC50 ([1]; FARAGE, Experiment 1, ref Report CC-90010-Pharm-1018): 0.71 µM
IC50 ([1]; Farage, Experiment 2, ref Report CC-90010-Pharm-1018): 3.35 µM
severely toxic dose ([2]; 4-week Beagle dog study): 7.50 mg base/kg/dose
cardiovascular and respiratory effects ([2]; conscious Beagle dogs): no CC-90010-related effects on electrocardiograms, heart rate
highest non-severely toxic dose (HNSTD) ([2]; dog, 3-days-on/4-days-off schedule): 3.75 mg base/kg/dose
mean exposure corresponding to the dog HNSTD [2]: 10 µg·h/mL
IC50 [3]: 0.07 µM
IC50 [4]: 0.11 ± 0.04 µM
reduction in target lesion size ([5]; one patient with GCB immunophenotype R/R DLBCL, after two cycles): 57%
Median OS (95% CI) ([5]; part B DLBCL (n = 23)): 159 days and 159 (101–NE) days
Median PFS (95% CI) ([5]; part B DLBCL (n = 23)): 54 (49–65) days
OS range ([5]; part B DLBCL (n = 23)): 44 to 423 days
PFS range ([5]; part B DLBCL (n = 23)): 12 to 423 days
best response CR ([5]; part B R/R DLBCL (N = 23)): 8.7%
best response PD ([5]; part B R/R DLBCL (N = 23)): 43.5%
best response PR ([5]; part B R/R DLBCL (N = 23)): 4.3%
best response SD ([5]; part B R/R DLBCL (N = 23)): 8.7%
CBR [5, 17]: 17.4%
ORR [5, 17]: 13.0%
total treatment duration ([5]; part B, one patient with transformed DLBCL, ongoing at cycle 17): 1.6 years
IC50 [6]: ~0.36 µM
IC50 [7]: 0.24 µM
decrease of blood PD marker CCR1 achieved ([8]; 30 mg 3-days-on/11-days off, 4 hours post last dose in the first cycle): ≥ 50%
decrease of blood PD marker CCR1 achieved ([8]; 45 mg 4-days-on/24-days-off): ≥ 50%
percentage of baseline CCR1 expression, individual patients ([8]; part B, 30 mg/day (n = 2), 4 h after last dose): 13.4467 % of baseline and 130.198 % of baseline
percentage of baseline CCR1 expression, individual patients ([8]; part B, 30 mg/day (n = 3), 4 h after first dose): 50.27 % of baseline and 55.3963 % of baseline and 80.5103 % of baseline
Mean CCR1 mRNA level ([8]; part B, 45 mg/day 4 days on/24 days off, 4 h after the first and last dose): < 50 % of baseline
mean reduction of blood CCR1 mRNA ([8]; part B, 45 mg/day 4 days on/24 days off, after the first and last dose): > 50%
percentage of baseline CCR1 expression, individual patients Pt 1-16 ([8]; part B, 45 mg/day 4 days on/24 days off, time 2 h): 30.5369 % of baseline and 28.4986 % of baseline and 30.4914 % of baseline and 56.7025 % of baseline and 34.2349 % of baseline and 126.292 % of baseline and 41.5689 % of baseline and 39.5781 % of baseline and 38.6952 % of baseline
percentage of baseline CCR1 expression, individual patients Pt 1-16 ([8]; part B, 45 mg/day 4 days on/24 days off, time 72 h): 11.6428 % of baseline and 66.6434 % of baseline and 61.1466 % of baseline and 71.42 % of baseline and 107.064 % of baseline and 92.4076 % of baseline and 206.706 % of baseline and 11.5951 % of baseline and 29.4034 % of baseline and 32.6074 % of baseline and 46.3108 % of baseline and 35.5399 % of baseline and 51.254 % of baseline and 16.3541 % of baseline and 56.3318 % of baseline and 47.472 % of baseline
percentage of baseline CCR1 expression, individual patients Pt 1-16 ([8]; part B, 45 mg/day 4 days on/24 days off, time 74 h): 7.664 % of baseline and 43.5783 % of baseline and 101.397 % of baseline and 68.6148 % of baseline and 66.624 % of baseline and 90.5744 % of baseline and 6.3621 % of baseline and 11.918 % of baseline and 23.0451 % of baseline and 38.3287 % of baseline and 18.1003 % of baseline and 30.2477 % of baseline and 30.0183 % of baseline and 30.3305 % of baseline
percentage of baseline CCR1 expression, individual patients Pt 1-16 ([8]; part B, 45 mg/day 4 days on/24 days off, time 76 h): 7.416 % of baseline and 22.7163 % of baseline and 45.8741 % of baseline and 84.9845 % of baseline and 62.1329 % of baseline and 102.299 % of baseline and 97.8745 % of baseline and 12.7872 % of baseline and 26.7231 % of baseline and 38.7251 % of baseline and 59.7173 % of baseline and 32.5849 % of baseline and 15.5412 % of baseline and 32.2909 % of baseline and 34.1593 % of baseline
percentage of baseline CCR1 expression, individual patients Pt 1-16 ([8]; part B, 45 mg/day 4 days on/24 days off, time 96 h): 18.2209 % of baseline and 101.061 % of baseline and 57.0673 % of baseline and 66.6995 % of baseline and 126.329 % of baseline and 107.431 % of baseline and 11.7759 % of baseline and 20.7746 % of baseline and 24.4742 % of baseline and 39.7466 % of baseline and 30.1049 % of baseline and 35.253 % of baseline and 12.8666 % of baseline and 60.4272 % of baseline and 48.4025 % of baseline
percentage of baseline CCR1 expression, individual patients Pt 1-16 ([8]; part B, 45 mg/day 4 days on/24 days off, time 168 h): 1110.93 % of baseline and 46.7528 % of baseline and 137.362 % of baseline and 245.348 % of baseline and 178.841 % of baseline and 306.585 % of baseline and 142.224 % of baseline and 191.429 % of baseline and 72.8857 % of baseline and 69.6406 % of baseline and 101.659 % of baseline and 69.3899 % of baseline and 160.385 % of baseline and 78.4141 % of baseline and 220.588 % of baseline
percentage of baseline CCR1 expression, individual patients Pt 1-16 ([8]; part B, 45 mg/day 4 days on/24 days off, time 192 h): 44.5123 % of baseline and 125.959 % of baseline and 259.615 % of baseline and 202.75 % of baseline and 242.493 % of baseline and 146.374 % of baseline and 154.035 % of baseline and 288.7 % of baseline and 109.004 % of baseline and 72.27 % of baseline and 78.3761 % of baseline and 79.513 % of baseline and 168.811 % of baseline and 147.701 % of baseline and 179.93 % of baseline
percentage of baseline CCR1 expression, individual patients ([8]; part B, 45 mg/day (n = 15), 4 h after last dose): 26.7231 % of baseline and 32.2909 % of baseline and 32.5849 % of baseline and 34.1593 % of baseline and 38.7251 % of baseline and 45.8741 % of baseline and 59.7173 % of baseline and 62.1329 % of baseline and 84.9845 % of baseline and 97.8745 % of baseline and 102.299 % of baseline and 7.416 % of baseline and 12.7872 % of baseline and 15.5412 % of baseline and 22.7163 % of baseline
percentage of baseline CCR1 expression, individual patients ([8]; part B, 45 mg/day (n = 16), 4 h after first dose): 31.799 % of baseline and 32.0053 % of baseline and 36.1061 % of baseline and 40.3422 % of baseline and 46.5342 % of baseline and 46.6648 % of baseline and 52.9092 % of baseline and 58.7813 % of baseline and 59.2329 % of baseline and 60.0574 % of baseline and 60.1703 % of baseline and 87.3968 % of baseline and 24.9251 % of baseline and 27.9014 % of baseline and 28.1552 % of baseline and 31.5602 % of baseline
IC50 [9]: 0.348 µM
alternative RP2D ([10]; 3 days on/11 days off): 30 mg/day
recommended phase II dose (RP2D) ([10]; 4 days on/24 days off): 45 mg/day
inhibition of mediated transport [11]: 58.3%
IC50 [12]: 24.3 µM
IC50 ([13]; SU-DHL-4, Experiment 1, ref Report CC-90010-Pharm-1018): 0.16 µM
IC50 ([13]; SU-DHL-4, Table 2, ref Report CC-90010-Pharm-1018): 0.304 µM
IC50 [14]: 0.13 µM
IC50 [15]: ≥ 13.9 µM
oral bioavailability [16]: high oral bioavailability
t1/2 [16]: ~ 60 h
